The record followed here is patent US7507860B2 (Pfizer Inc., priority 2004, dated 2009).

For the assay, the target named is T1, human androgen receptor (hAR) (Homo sapiens, UniProt P10275).
T1 construct: made in house; host or cells: baculovirus/Sf9 insect cells (crude extract)
T1 sequence (P10275 1-920): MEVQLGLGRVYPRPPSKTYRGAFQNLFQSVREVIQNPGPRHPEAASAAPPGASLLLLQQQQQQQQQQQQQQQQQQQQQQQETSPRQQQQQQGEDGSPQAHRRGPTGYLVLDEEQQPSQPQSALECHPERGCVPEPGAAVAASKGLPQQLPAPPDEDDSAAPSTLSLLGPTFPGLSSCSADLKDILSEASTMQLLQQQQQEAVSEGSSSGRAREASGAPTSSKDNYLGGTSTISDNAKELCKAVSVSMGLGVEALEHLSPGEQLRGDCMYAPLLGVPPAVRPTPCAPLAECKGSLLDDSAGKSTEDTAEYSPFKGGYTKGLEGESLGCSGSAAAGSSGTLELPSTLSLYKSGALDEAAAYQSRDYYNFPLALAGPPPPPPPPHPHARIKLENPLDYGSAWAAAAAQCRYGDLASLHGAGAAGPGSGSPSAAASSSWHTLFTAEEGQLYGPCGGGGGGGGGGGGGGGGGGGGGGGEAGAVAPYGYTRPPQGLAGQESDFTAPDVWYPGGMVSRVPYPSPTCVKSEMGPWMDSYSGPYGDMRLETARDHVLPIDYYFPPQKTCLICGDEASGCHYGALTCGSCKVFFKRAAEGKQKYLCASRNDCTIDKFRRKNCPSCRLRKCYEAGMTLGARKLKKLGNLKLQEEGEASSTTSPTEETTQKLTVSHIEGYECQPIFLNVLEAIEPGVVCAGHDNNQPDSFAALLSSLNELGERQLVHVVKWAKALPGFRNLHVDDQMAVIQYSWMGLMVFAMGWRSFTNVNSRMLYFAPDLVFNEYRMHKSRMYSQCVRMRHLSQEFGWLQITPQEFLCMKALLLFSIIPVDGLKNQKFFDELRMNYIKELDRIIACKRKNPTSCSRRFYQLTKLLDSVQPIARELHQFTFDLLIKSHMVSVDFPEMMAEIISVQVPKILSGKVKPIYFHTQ
The experiment in a line: Competitive binding analysis on baculovirus/Sf9 generated hAR extracts with 3H-DHT tracer. As to conditions: hAR extract, 1 nM 3H-DHT, one hour at 4° C; mean of multiple tests; read-out: AR Binding IC50. The protocol: The compounds of Formula I have affinity for the androgen receptor. […] The description below describes how the assay was carried out.
Competitive binding analysis was performed on baculovirus/Sf9 generated hAR extracts in the presence or absence of different concentrations of test agent and a fixed concentration of ^3H-dihydrotestosterone (^3H-DHT) as tracer. This binding assay method is a modification of a protocol previously described (Liao S., et. al. J. Steroid Biochem. 20:11-17 1984). Briefly, progressively decreasing concentrations of compounds are incubated in the presence of hAR extract (Chang et al. P.N.A.S. Vol. 89, pp. […], 1992), hydroxylapatite, and 1 nM^3H-DHT for one hour at 4° C. Subsequently, the binding reactions are washed three times to completely remove excess unbound ^3H-DHT. hAR bound ^3H-DHT levels are determined in the presence of compounds (=i.e competitive binding) and compared to levels bound when no competitor is present (=i.e. maximum binding). Compound binding affinity to the hAR is expressed as the concentration of compound at which one half of the maximum binding is inhibited. Table II below provides the results that were obtained for selected compounds (reported data is the mean of multiple tests as shown below)
Take `CCCC(Oc1ccc(C#N)c(C(F)(F)F)c1)C(=O)NCCc1ccccc1OC` (stereo not drawn) [Example 51, 2-(4-Cyano-3-trifluoromethyl-phenoxy)-pentanoic acid-[2-(2-methoxy-phenyl)ethyl]-amide]: the IC50 is 381 nM.

In the case of `CCCC(Oc1ccc(C#N)c(C(F)(F)F)c1)C(=O)N(Cc1ccccc1)C(C)C` (stereo not drawn) [Example 67, 2-(4-Cyano-3-trifluoromethyl-phenoxy)-pentanoic acid benzyl-isopropyl-amide], the IC50 came out at 440 nM.

On to `COc1ccc([C@@H](C)NC(=O)C(CC(C)C)Oc2ccc(C#N)c(C(F)(F)F)c2)cc1` (stereo in doubt) [Example 110, 2-(4-Cyano-3-trifluoromethyl-phenoxy)-4-methyl-pentanoic acid [1-(4-methoxy-phenyl)-ethyl]-amide], for which the IC50 came to 340 nM.

Take `CC(C)CC(Oc1ccc(C#N)c(C(F)(F)F)c1)C(=O)NC(C)c1ccc(O)cc1` (stereo not drawn) [Example 69, 2-(4-Cyano-3-trifluoromethyl-phenoxy)-4-methyl-pentanoic acid [1-(4-hydroxyphenyl)-ethyl]-amide]: the IC50 was 341 nM.

For `CCCC(Oc1ccc(C#N)c(C(F)(F)F)c1)C(=O)NC(C)c1ccc(O)cc1` (stereo not drawn) [Example 6, 2-(4-Cyano-3-trifluoromethyl-phenoxy)-pentanoic acid [1-(4-hydroxy-phenyl)ethyl]-amide], the IC50 was determined as 455 nM.

For the compound `CC(C)CC(Oc1ccc(C#N)c(C(F)(F)F)c1)C(=O)NCc1ccncc1` (stereo not drawn) [Example 16, 2-(4-Cyano-3-trifluoromethyl-phenoxy)-4-methyl-pentanoic acid (pyridin-4-yl-methyl)-amide], the IC50 stood at 368 nM.

Take `CCCC(Oc1ccc(C#N)c(C(F)(F)F)c1)C(=O)NCc1cccc2ccccc12` (stereo not drawn) [Example 77, 2-(4-Cyano-3-trifluoromethyl-phenoxy)-pentanoic acid (naphthalene-1-yl-methyl)amide]: the IC50 stood at 292 nM.

`CC(C)CC(Oc1ccc(C#N)c(C(F)(F)F)c1)C(=O)N[C@H](C)c1ccccc1` (stereo in doubt) [Example 122, 2-(4-Cyano-3-trifluoromethyl-phenoxy)-4-methyl-pentanoic acid (1-phenyl-ethyl)-amide]: the IC50 amounted to 329 nM.

For the compound `CCCC(Oc1ccc(C#N)c(C(F)(F)F)c1)C(=O)NCCSC` (stereo not drawn) [Example 90, 2-(4-Cyano-3-trifluoromethyl-phenoxy)-pentanoic acid (2-methylsulfanyl-ethyl)amide], the IC50 stood at 736 nM.

On to `CCCC(Oc1ccc(C#N)c(C(F)(F)F)c1)C(=O)NCCc1ccc(C)cc1` (stereo not drawn) [Example 50, 2-(4-Cyano-3-trifluoromethyl-phenoxy)-pentanoic acid-(2-p-tolyl-ethyl)-amide], for which the half-inhibitory concentration (IC50) came out at 399 nM.

For `CCCC(Oc1ccc(C#N)c(C(F)(F)F)c1)C(=O)Nc1ccc(C)c(O)c1` (stereo not drawn) [Example 116, 2-(4-Cyano-3-trifluoromethyl-phenoxy)-pentanoic acid (3-hydroxy-4-methyl-phenyl)-amide], the IC50 was 296 nM.

For `CCCC(Oc1ccc(C#N)cc1Cl)C(=O)OCC` (stereo not drawn) [Example 100, 2-(2-Chloro-4-cyano-phenoxy)-pentanoic acid ethyl ester], the IC50 was found to be 347 nM.

As to `CC(C)CC(Oc1ccc(C#N)c(C(F)(F)F)c1)C(=O)NCC1Cc2ccccc2CO1` (stereo not drawn) [Example 27, 2-(4-Cyano-3-trifluoromethyl-phenoxy)-4-methyl-pentanoic acid (isochroman-3-yl-methyl)-amide], the IC50 was determined as 214 nM.

For `CCNC(=O)C(CC(C)C)Oc1ccc(C#N)c(C(F)(F)F)c1` (stereo not drawn) [Example 3, 2-(4-Cyano-3-trifluoromethyl-phenoxy)-4-methyl-pentanoic acid ethylamide], the IC50 stood at 247 nM.

“2-(4-Cyano-3-trifluoromethyl-phenoxy)-4-methyl-pentanoic acid (2H-imidazo[1,2-a]pyridin-3-yl)-methyl)amide [Example 60]”: the IC50 was determined as 318 nM.

As to `CC(C)CC(Oc1ccc(C#N)c(C(F)(F)F)c1)C(=O)N[C@@H](C)c1ccccc1` (stereo in doubt) [Example 112, 2-(4-Cyano-3-trifluoromethyl-phenoxy)-4-methyl-pentanoic acid (1-phenyl-ethyl)-amide], the IC50 stood at 329 nM.

For `CC(C)CC(Oc1ccc(C#N)c(C(F)(F)F)c1)C(=O)NCc1ccc(C(C)C)cc1` (stereo not drawn) [Example 70, 2-(4-Cyano-3-trifluoromethyl-phenoxy)-4-methyl-pentanoic acid 4-isopropyl-benzylamide], the IC50 stood at 253 nM.

For the compound `Cc1ncccc1CNC(=O)C(CC(C)C)Oc1ccc(C#N)c(C(F)(F)F)c1` (stereo not drawn) [Example 76, 2-(4-Cyano-3-trifluoromethyl-phenoxy)-4-methyl-pentanoic acid (2-methyl-pyridin-3-yl-methyl)-amide], the IC50 came out at 479 nM.

On to `CCCOCCCNC(=O)C(CCC)Oc1ccc(C#N)c(C(F)(F)F)c1` (stereo not drawn) [Example 115, 2-(4-Cyano-3-trifluoromethyl-phenoxy)-pentanoic acid (3-propoxy-propyl)-amide], for which the IC50 was found to be 428 nM.

On to `CCCC(Oc1ccc(C#N)c(C(F)(F)F)c1)C(=O)NCCCSC` (stereo not drawn) [Example 89, 2-(4-Cyano-3-trifluoromethyl-phenoxy)-pentanoic acid (3-methylsulfanyl-propyl)amide], for which the IC50 came to 486 nM.

Turning to `CCCC(Oc1ccc(C#N)c(C(F)(F)F)c1)C(=O)NCC1Cc2ccccc2CO1` (stereo not drawn) [Example 32, 2-(4-Cyano-3-trifluoromethyl-phenoxy)-pentanoic acid (isochroman-3-yl-methyl)amide], the IC50 came to 407 nM.

Turning to `CCC(C)CNC(=O)C(CC(C)C)Oc1ccc(C#N)c(C(F)(F)F)c1` (stereo not drawn) [Example 75, 2-(4-Cyano-3-trifluoromethyl-phenoxy)-4-methyl-pentanoic acid-(2-methyl-butyl)amide], the IC50 worked out at 417 nM.

On to `CC(C)CC(Oc1ccc(C#N)c(C(F)(F)F)c1)C(=O)N(Cc1ccccc1)C(C)C` (stereo not drawn) [Example 63, 2-(4-Cyano-3-trifluoromethyl-phenoxy)-4-methyl-pentanoic acid benzyl-isopropyl-amide], for which the half-inhibitory concentration (IC50) was determined as 482 nM.

Turning to `COc1ccc2[nH]cc(CCNC(=O)C(CC(C)C)Oc3ccc(C#N)c(C(F)(F)F)c3)c2c1` (stereo not drawn) [Example 98, 2-(4-Cyano-3-trifluoromethyl-phenoxy)-4-methyl-pentanoic acid [2-(5-methoxy-1H-indol-3-yl)-ethyl]-amide], the IC50 worked out at 279 nM.

In the case of `COc1cccc(CNC(=O)C(CC(C)C)Oc2ccc(C#N)c(C(F)(F)F)c2)c1` (stereo not drawn) [Example 71, 2-(4-Cyano-3-trifluoromethyl-phenoxy)-4-methyl-pentanoic acid-3-methoxy-benzylamide], the IC50 was determined as 288 nM.

For `Cc1cccnc1CNC(=O)C(CC(C)C)Oc1ccc(C#N)c(C(F)(F)F)c1` (stereo not drawn) [Example 20, 2-(4-Cyano-3-trifluoromethyl-phenoxy)-4-methyl-pentanoic acid (3-methyl-pyridin-2-yl-methyl)-amide], the IC50 came out at 410 nM.

Turning to `CSCCCNC(=O)C(CC(C)C)Oc1ccc(C#N)c(C(F)(F)F)c1` (stereo not drawn) [Example 21, 2-(4-Cyano-3-trifluoromethyl-phenoxy)-4-methyl-pentanoic acid (3-methylsulfanyl-propyl)-amide], the IC50 was determined as 362 nM.

For the compound `Cc1ccc(NC(=O)C(CC(C)C)Oc2ccc(C#N)c(C(F)(F)F)c2)cc1O` (stereo not drawn) [Example 88, 2-(4-Cyano-3-trifluoromethyl-phenoxy)-4-methyl-pentanoic acid (3-hydroxy-4-methyl-phenyl)-amide], the IC50 is 296 nM.

Consider `CCCC(Oc1ccc(C#N)c(C(F)(F)F)c1)C(=O)NC(C)c1cccs1` (stereo not drawn) [Example 17, 2-(4-Cyano-3-trifluoromethyl-phenoxy)-pentanoic acid (1-thiophen-2-yl-ethyl)amide], for which the IC50 amounted to 1000 nM.

`CCCC(Oc1ccc(C#N)c(C(F)(F)F)c1)C(=O)NCc1cccc(OC)c1` (stereo not drawn) [Example 40, 2-(4-Cyano-3-trifluoromethyl-phenoxy)-pentanoic acid-3-methoxy-benzylamide]: the IC50 came to 241 nM.
